Literature values as cited in US7799547B2, “Purified polypeptides from Staphylococcus aureus” (Affinium Pharmaceuticals, Inc., priority 2003, dated 2010).

Key:
E. coli FabI = E. coli FabI (Escherichia coli, UniProt P0AEK4)
S. aureus FabI = S. aureus FabI (Staphylococcus aureus, UniProt Q6GI75)
[1] = tested on: panel of clinical isolates of S. aureus; conditions: clinical isolates of S. aureus resistant to different classes of antibiotics
MRSA strain WCUH29 = conditions: rat, oral administration at 50 mg/kg

Chain of E. coli FabI (P0AEK4 whole entry): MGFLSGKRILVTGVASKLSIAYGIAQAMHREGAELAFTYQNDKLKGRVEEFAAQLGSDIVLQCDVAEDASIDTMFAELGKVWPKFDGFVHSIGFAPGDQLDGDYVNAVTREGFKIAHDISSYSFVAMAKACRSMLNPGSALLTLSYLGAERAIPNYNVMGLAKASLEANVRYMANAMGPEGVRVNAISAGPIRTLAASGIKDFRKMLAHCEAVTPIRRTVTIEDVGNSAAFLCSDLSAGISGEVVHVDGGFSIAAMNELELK
Chain of S. aureus FabI (Q6GI75 whole entry): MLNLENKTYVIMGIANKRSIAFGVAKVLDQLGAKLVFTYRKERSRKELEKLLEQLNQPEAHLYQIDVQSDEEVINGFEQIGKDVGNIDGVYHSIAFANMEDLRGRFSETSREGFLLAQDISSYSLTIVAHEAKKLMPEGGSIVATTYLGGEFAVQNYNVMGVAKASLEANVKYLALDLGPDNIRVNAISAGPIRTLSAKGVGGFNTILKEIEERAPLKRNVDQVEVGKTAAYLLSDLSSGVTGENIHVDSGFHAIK

Row | Structure (SMILES) | Inhibition of E. coli FabI (E. coli FabI) | Inhibition of S. aureus FabI (S. aureus FabI) | MIC90 fold lower than those of the commercial antibiotics tested [1] [fold] | Reduction in bacterial counts relative to untreated controls (MRSA strain WCUH29) [log]
1 | Oc1c(Cl)cc(Cl)c(Cl)c1Cc1c(O)c(Cl)cc(Cl)c1Cl [hexachlorophene] | inhibited | inhibited |  | 
2 | Oc1cc(Cl)ccc1Oc1ccc(Cl)cc1Cl [triclosan] | inhibited | inhibited |  | 
3 | Cc1[nH]c2ccccc2c1CN(C)C(=O)/C=C/c1cnc2c(c1)CCC(=O)N2 [API-1135] |  |  | > 500 | 3.5
